Results: ChEMBL document CHEMBL4196048, “Discovery and characterization of a potent Wnt and hedgehog signaling pathways dual inhibitor” (Eur J Med Chem, 2018)
Values belong to the compound of their own block, whether it stands above or below them. Activity calls are given as the source filed them. The rule behind the calls is not given here.

Legend:
[1] = target: T1, Protein-serine O-palmitoleoyltransferase porcupine (Mus musculus, UniProt Q9JJJ7); assay: Inhibition of porcupine in mouse L Wnt3A cells co-cultured with HEK293 cells assessed as suppression of Wnt signaling after 48 hrs by Super-top flash reporter gene assay; assay type: cell-based
T1 sequence (Q9JJJ7 whole entry): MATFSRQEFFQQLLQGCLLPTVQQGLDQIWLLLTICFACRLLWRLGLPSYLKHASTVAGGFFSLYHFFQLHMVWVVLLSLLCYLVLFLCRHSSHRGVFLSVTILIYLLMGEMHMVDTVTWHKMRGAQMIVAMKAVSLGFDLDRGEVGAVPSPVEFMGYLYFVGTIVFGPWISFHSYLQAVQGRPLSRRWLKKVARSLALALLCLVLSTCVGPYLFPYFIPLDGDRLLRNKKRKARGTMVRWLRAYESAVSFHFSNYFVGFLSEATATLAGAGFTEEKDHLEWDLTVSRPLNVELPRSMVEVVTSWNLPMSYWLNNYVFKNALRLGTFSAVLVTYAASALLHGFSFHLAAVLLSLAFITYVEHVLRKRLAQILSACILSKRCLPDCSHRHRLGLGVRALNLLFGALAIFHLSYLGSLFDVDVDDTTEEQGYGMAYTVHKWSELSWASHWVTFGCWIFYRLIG

[2] = target: Protein smoothened (Mus musculus, UniProt P56726); assay: (§1) Inhibition of smo-mediated hedgehog signaling pathway in mouse NIH3T3 cells expressing GRE-Luc reporter gene assessed as inhibition of SAG-induced GRE-Luc reporter activity after 48 hrs by luminescence assay; assay type: functional, cell-based
Chain of Protein smoothened (Mus musculus, UniProt P56726) (P56726 whole entry): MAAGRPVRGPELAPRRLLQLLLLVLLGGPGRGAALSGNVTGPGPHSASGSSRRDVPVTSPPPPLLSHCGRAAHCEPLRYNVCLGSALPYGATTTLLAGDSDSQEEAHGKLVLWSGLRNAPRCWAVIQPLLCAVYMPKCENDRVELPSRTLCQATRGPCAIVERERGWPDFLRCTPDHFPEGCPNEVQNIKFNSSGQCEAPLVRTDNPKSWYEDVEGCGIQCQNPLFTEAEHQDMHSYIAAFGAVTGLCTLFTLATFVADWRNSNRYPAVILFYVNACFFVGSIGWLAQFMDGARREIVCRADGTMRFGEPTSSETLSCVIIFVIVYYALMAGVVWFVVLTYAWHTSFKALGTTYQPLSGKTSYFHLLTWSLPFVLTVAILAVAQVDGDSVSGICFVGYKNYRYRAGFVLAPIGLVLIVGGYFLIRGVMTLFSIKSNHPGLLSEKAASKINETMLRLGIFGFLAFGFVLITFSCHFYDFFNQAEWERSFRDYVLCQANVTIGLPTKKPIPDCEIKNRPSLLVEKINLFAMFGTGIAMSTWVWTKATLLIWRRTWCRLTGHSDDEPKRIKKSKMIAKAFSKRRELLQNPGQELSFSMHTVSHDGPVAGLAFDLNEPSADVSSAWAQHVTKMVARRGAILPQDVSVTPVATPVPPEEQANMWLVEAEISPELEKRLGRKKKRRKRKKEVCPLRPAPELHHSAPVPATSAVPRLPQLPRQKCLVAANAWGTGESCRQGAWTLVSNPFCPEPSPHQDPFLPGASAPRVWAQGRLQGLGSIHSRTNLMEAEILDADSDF

[3] = AUC (0 to 24 hrs) in ICR mouse at 2 mg/kg, iv by LC-MS/MS analysis; assay type: ADME, organism-based; design: dose 2 mg/kg, time < 24 hr, route intravenous; settings: in vivo
[4] = Clearance in ICR mouse at 2 mg/kg, iv by LC-MS/MS analysis; assay type: ADME, organism-based; settings: in vivo
[5] = Volume of distribution at steady state in ICR mouse at 2 mg/kg, iv by LC-MS/MS analysis; assay type: ADME, organism-based; settings: in vivo, read-out: Vdss
[6] = Half life in ICR mouse at 2 mg/kg, iv by LC-MS/MS analysis; assay type: ADME, organism-based; settings: in vivo
[7] = AUC (0 to 24 hrs) in ICR mouse at 10 mg/kg, po administered via gavage by LC-MS/MS analysis; assay type: ADME, organism-based; design: time < 24 hr, dose 10 mg/kg, route oral; settings: in vivo
[8] = Cmax in ICR mouse at 10 mg/kg, po administered via gavage by LC-MS/MS analysis; assay type: ADME, organism-based; design: dose 10 mg/kg, route oral; settings: in vivo
[9] = Tmax in ICR mouse at 10 mg/kg, po administered via gavage by LC-MS/MS analysis; assay type: ADME, organism-based; settings: in vivo
[10] = Half life in ICR mouse at 10 mg/kg, po administered via gavage by LC-MS/MS analysis; assay type: ADME, organism-based; settings: in vivo
[11] = Oral bioavailability in ICR mouse at 10 mg/kg administered via gavage by LC-MS/MS analysis; assay type: ADME, organism-based; settings: in vivo
[12] = Protein binding in mouse plasma; assay type: ADME, cell-free; settings: read-out: PPB (converted)
[13] = test system: Mus musculus; assay: Toxicity in C57BL/6J mouse assessed as effect on behavior at 10 mg/kg administered for 7 days via oral gavage; assay type: organism-based; settings: in vivo, 168 h
[14] = test system: Mus musculus; assay: Toxicity in C57BL/6J mouse assessed as effect on food consumption at 10 mg/kg administered for 7 days via oral gavage; assay type: organism-based; settings: in vivo, 168 h
[15] = test system: Mus musculus; assay: Toxicity in C57BL/6J mouse assessed as effect on WBC count in blood at 10 mg/kg administered for 7 days via oral gavage; assay type: organism-based; settings: in vivo, 168 h
[16] = test system: Mus musculus; assay: Toxicity in C57BL/6J mouse assessed as effect on lymphocyte count in blood at 10 mg/kg administered for 7 days via oral gavage; assay type: organism-based; settings: in vivo, 168 h
[17] = test system: Mus musculus; assay: Toxicity in C57BL/6J mouse assessed as body weight loss at 10 mg/kg administered for 7 days via oral gavage; assay type: organism-based; settings: in vivo, 168 h
[18] = test system: Mus musculus; assay: Toxicity in C57BL/6J mouse assessed as effect on RBC count in blood at 10 mg/kg administered for 7 days via oral gavage; assay type: organism-based; settings: in vivo, 168 h
[19] = test system: Mus musculus; assay: Toxicity in C57BL/6J mouse assessed as effect on hemoglobin content in blood at 10 mg/kg administered for 7 days via oral gavage; assay type: organism-based; settings: in vivo, 168 h
[20] = test system: Mus musculus; assay: Toxicity in C57BL/6J mouse assessed as effect on platelet count in blood at 10 mg/kg administered for 7 days via oral gavage; assay type: organism-based; settings: in vivo, 168 h
[21] = test system: Mus musculus; assay: Toxicity in C57BL/6J mouse assessed as effect on heart weight at 10 mg/kg administered for 7 days via oral gavage; assay type: organism-based; settings: in vivo, 168 h
[22] = test system: Mus musculus; assay: Toxicity in C57BL/6J mouse assessed as effect on liver weight at 10 mg/kg administered for 7 days via oral gavage; assay type: organism-based; settings: in vivo, 168 h
[23] = test system: Mus musculus; assay: Toxicity in C57BL/6J mouse assessed as effect on spleen weight at 10 mg/kg administered for 7 days via oral gavage; assay type: organism-based; settings: in vivo, 168 h
[24] = test system: Mus musculus; assay: Toxicity in C57BL/6J mouse assessed as effect on lung weight at 10 mg/kg administered for 7 days via oral gavage; assay type: organism-based; settings: in vivo, 168 h
[25] = test system: Mus musculus; assay: Toxicity in C57BL/6J mouse assessed as effect on kidney weight at 10 mg/kg administered for 7 days via oral gavage; assay type: organism-based; settings: in vivo, 168 h
[26] = test system: Mus musculus; assay: Toxicity in C57BL/6J mouse assessed as effect on colon architecture at 10 mg/kg administered via oral gavage for 7 days by hematoxylin and eosin staining-based method; assay type: organism-based; settings: in vivo, 168 h
[27] = test system: Mus musculus; assay: Toxicity in C57BL/6J mouse assessed as effect on stomach architecture at 10 mg/kg administered via oral gavage for 7 days by hematoxylin and eosin staining-based method; assay type: organism-based; settings: in vivo, 168 h
[28] = test system: Mus musculus; assay: Toxicity in C57BL/6J mouse assessed as effect on liver architecture at 10 mg/kg administered via oral gavage for 7 days by hematoxylin and eosin staining-based method; assay type: organism-based; settings: in vivo, 168 h
[29] = test system: Mus musculus; assay: Toxicity in C57BL/6J mouse assessed as effect on spleen architecture at 10 mg/kg administered via oral gavage for 7 days by hematoxylin and eosin staining-based method; assay type: organism-based; settings: in vivo, 168 h
[30] = target: T2, Protein-serine O-palmitoleoyltransferase porcupine (Homo sapiens) (UniProt Q9H237); assay: Inhibition of porcupine in HEK293T cells transfected with pLibin-WNT3A plasmid assessed as reduction in Wnt3A secretion into cell culture medium at 100 nM after 48 hrs by Western blot method; assay type: cell-based
T2 sequence (whole entry): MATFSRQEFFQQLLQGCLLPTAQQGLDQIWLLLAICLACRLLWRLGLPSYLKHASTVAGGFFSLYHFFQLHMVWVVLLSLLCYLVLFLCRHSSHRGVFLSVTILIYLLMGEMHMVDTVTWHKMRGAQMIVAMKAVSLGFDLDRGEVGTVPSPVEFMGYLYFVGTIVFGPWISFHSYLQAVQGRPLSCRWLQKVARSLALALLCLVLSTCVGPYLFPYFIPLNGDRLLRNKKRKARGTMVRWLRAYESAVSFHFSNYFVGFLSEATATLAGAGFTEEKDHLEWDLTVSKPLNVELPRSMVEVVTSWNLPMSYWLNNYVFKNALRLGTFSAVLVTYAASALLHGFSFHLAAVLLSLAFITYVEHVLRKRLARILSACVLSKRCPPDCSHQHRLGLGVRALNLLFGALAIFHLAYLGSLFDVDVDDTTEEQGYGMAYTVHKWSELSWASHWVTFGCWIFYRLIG

[31] = target: T2, Protein-serine O-palmitoleoyltransferase porcupine (Homo sapiens); assay: Inhibition of porcupine in HEK293 cells transfected with pLibin-WNT3A plasmid assessed as downregulation of disheveled 2 phosphorylation at 100 nM after 48 hrs by Western blot analysis; assay type: cell-based
[32] = target: T2, Protein-serine O-palmitoleoyltransferase porcupine (Homo sapiens); assay: Inhibition of porcupine in HEK293 cells transfected with pLibin-WNT3A plasmid assessed as downregulation of LRP6 phosphorylation at 100 nM after 48 hrs by Western blot analysis; assay type: cell-based
[33] = target: T2, Protein-serine O-palmitoleoyltransferase porcupine (Homo sapiens); assay: Inhibition of porcupine-mediated Wnt/beta-catenin signaling in human PA1 cells assessed as downregulation of Axin2 mRNA expression after 24 hrs by real-time PCR analysis; assay type: cell-based
[34] = target: T2, Protein-serine O-palmitoleoyltransferase porcupine (Homo sapiens); assay: Inhibition of porcupine-mediated Wnt/beta-catenin signaling in human PA1 cells assessed as downregulation of disheveled 2 phosphorylation after 48 hrs by Western blot analysis; assay type: cell-based
[35] = target: T2, Protein-serine O-palmitoleoyltransferase porcupine (Homo sapiens); assay: Inhibition of porcupine-mediated Wnt/beta-catenin signaling in human PA1 cells assessed as downregulation of LRP6 phosphorylation after 48 hrs by Western blot analysis; assay type: cell-based
[36] = target: Protein smoothened (Mus musculus) (UniProt P56726); assay: as §1; assay type: functional, cell-based
Chain of Protein smoothened (Mus musculus) (P56726 whole entry): as the sequence (P56726 whole entry) above

[37] = test system: Astrocyte; assay: Cytotoxicity against primary astrocytes (unknown origin) up to 20 uM after 24 hrs by MTT assay; assay type: cell-based
[38] = test system: GES1; assay: Cytotoxicity against human GES-1 cells up to 20 uM by Cell Titer-Glo assay; assay type: cell-based
[39] = target: Protein smoothened (Mus musculus) (UniProt P56726); assay: Inhibition of smo-mediated hedgehog signaling pathway in mouse NIH3T3-Luc cells assessed as downregulation of 1 to 100 nM SAG-induced Gli luciferase activity after 48 hrs luminescence assay; assay type: functional, cell-based
[40] = target: Protein smoothened (Homo sapiens, UniProt Q99835); assay: Inhibition of Bodipy-cyclopamine binding to human Smo expressed in human U2OS cells after 2 hrs by high content fluorescence imaging analysis; assay type: cell-based
Chain of Protein smoothened (Homo sapiens, UniProt Q99835) (Q99835 whole entry): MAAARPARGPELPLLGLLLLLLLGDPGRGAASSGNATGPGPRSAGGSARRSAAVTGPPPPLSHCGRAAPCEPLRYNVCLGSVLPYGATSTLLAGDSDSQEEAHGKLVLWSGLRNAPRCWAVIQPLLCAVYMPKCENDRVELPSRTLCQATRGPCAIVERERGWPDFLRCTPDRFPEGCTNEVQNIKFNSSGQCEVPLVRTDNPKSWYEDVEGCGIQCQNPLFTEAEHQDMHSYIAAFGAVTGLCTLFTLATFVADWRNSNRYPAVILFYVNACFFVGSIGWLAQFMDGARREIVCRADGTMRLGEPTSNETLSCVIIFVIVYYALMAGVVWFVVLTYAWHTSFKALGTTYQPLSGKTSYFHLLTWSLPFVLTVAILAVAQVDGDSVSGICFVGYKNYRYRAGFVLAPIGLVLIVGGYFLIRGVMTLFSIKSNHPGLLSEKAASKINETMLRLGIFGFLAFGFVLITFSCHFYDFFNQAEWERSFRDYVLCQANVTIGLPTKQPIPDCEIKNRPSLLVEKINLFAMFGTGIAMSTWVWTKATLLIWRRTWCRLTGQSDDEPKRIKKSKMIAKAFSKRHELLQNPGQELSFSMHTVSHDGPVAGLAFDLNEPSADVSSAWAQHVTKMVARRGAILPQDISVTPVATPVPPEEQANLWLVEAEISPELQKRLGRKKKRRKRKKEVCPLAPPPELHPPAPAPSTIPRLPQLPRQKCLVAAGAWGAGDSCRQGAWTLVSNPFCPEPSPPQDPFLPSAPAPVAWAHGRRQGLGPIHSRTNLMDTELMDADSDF

[41] = target: Protein smoothened (Mus musculus) (UniProt P56726); assay: Inhibition of smo-mediated hedgehog signaling pathway in mouse NIH3T3-Luc cells assessed as downregulation of Gli mRNA expression after 48 hrs by real-time PCR analysis; assay type: functional, cell-based
[42] = test system: HEK-293T; assay: Effect on Wnt3A levels in HEK293T cells transfected with pLibin-WNT3A plasmid at 100 nM after 48 hrs by Western blot method; assay type: functional, cell-based; settings: Homo sapiens
[43] = test system: Mus musculus; assay: Time at which blood concentration stays above in vitro IC50 for porcupine-mediated Wnt signaling and smo-mediated hedgehog signaling pathway in ICR mouse at 10 mg/kg, po administered via gavage by LC-MS/MS analysis; assay type: ADME, organism-based; settings: in vivo

- IC50 [1]: 0.72 nM
- IC50 [2]: 1220 nM
SMILES: Cc1cc(-c2ncc(CNC(=O)c3ccc4c(c3)[nH]c3ccccc34)cc2C#N)ccn1

- AUC(0-t) at 24 h [3]: 5460 ng·h/mL
- clearance [4]: 6.1 mL/min/kg
- Vd [5]: 0.4 L/kg
- half-life [6]: 66 min
- AUC(0-t) at 24 h [7]: 13500 ng·h/mL
- Cmax [8]: 5140 ng/mL
- Tmax [9]: 30 min
- half-life [10]: 126 min
- bioavailability [11]: 49%
- fraction unbound [12]: 0.007
- inhibition [30]: Active
- inhibition [31]: Active
- inhibition [32]: Active
- inhibition [33]: Active
- inhibition [34]: Active
- inhibition [35]: Active
- inhibition [36]: Dose-dependent effect
- IC50 [2]: 71 nM
- inhibition [39]: Active
- IC50 [40]: > 10 µM
- inhibition [41]: Dose-dependent effect
- Time [43]: 10 h
SMILES: Cc1cc(-c2ncc(CNC(=O)c3ccc4c(c3)[nH]c3ccccc34)cc2F)ccn1
- Activity [13]: Non-Toxic
- Activity [14]: Non-Toxic
- Activity [15]: Non-Toxic
- Activity [16]: Non-Toxic
- Activity [17]: Non-Toxic
- Activity [18]: Non-Toxic
- Activity [19]: Non-Toxic
- Activity [20]: Non-Toxic
- Activity [21]: Non-Toxic
- Activity [22]: Non-Toxic
- Activity [23]: Non-Toxic
- Activity [24]: Non-Toxic
- Activity [25]: Non-Toxic
- Activity [26]: Non-Toxic
- Activity [27]: Non-Toxic
- Activity [28]: Non-Toxic
- Activity [29]: Non-Toxic
- Activity [37]: Non-Toxic
- Activity [38]: Non-Toxic
- Activity [42]: inactive

- IC50 [1]: 1.9 nM
- IC50 [2]: 3660 nM
SMILES: COc1cc(CNC(=O)c2ccc3c(c2)[nH]c2ccccc23)cnc1-c1ccnc(C)c1
